From ChEMBL document CHEMBL2057187, “AM-8553: a novel MDM2 inhibitor with a promising outlook for potential clinical development” (J Med Chem, 2012)

Legend:
[1] = Oral bioavailability in mouse; type: ADME, organism-based; details: in vivo
[2] = test system: SJSA-1; experiment: Antitumor activity against human SJSA1 cells xenografted in mouse assessed as tumor regression at 200 mg/kg, qd; type: functional
[3] = Oral bioavailability in rat; type: ADME, organism-based; details: in vivo

CC[C@@H]([C@H](C)O)N1C(=O)[C@@](C)(CC(=O)O)C[C@H](c2cccc(Cl)c2)[C@H]1c1ccc(Cl)cc1
bioavailability [1]: 12%
Activity [2]: 27%
bioavailability [3]: 100%
